For series [1], the system named is mice with atopic dermatitis outbreak (NC/Nga, mite antigen Biostir AD). Kind of series: Atopic dermatitis score with simultaneous mite antigen induction and test formulation application, Example 5. In kind it is in vivo, mouse. The following applies: topical 5 times a week for 3 weeks, 12 mM week 1, 24 mM week 2 and thereafter (decamethonium bromide 12 mM, twice a week in last week), induction twice a week. The protocol:
(§1) Induction with mite antigens (twice a week) and application of a test formulation (5 times a week) were simultaneously performed for 3 weeks to analyze the effect of suppressing induction of atopic dermatitis. A test formulation was used at 12 mM in week 1, and at 24 mM in week 2 and thereafter. […] A non treatment group (no induction, no application of test formulation) and solvent applied group (with induction, application of purified water) were prepared as controls.
(1) Antagonist and agonist: hexamethonium bromide, suxamethonium chloride (Maruishi Pharmaceutical), and decamethonium bromide (Tokyo Chemical Industry) were used to compare an antagonist and agonist of a nicotinic acetylcholine receptor. […] (3) Number of tertiary amino groups: Hexamethonium bromide has two tertiary amino groups within the molecule. This was compared to hexyltrimethylammonium bromide (Wako Pure Chemical; hereinafter, referred to as Hexyl-TAB) having one tertiary amino group within the molecule and an alkyl group with 6 carbons. (4) Carbon chain length: Hexamethonium bromide was compared with decamethonium bromide (number of carbons 10) which has a carbon chain length that is longer than hexamethonium bromide (number of carbons 6), and compared with tetramethylammonium bromide (Wako Pure Chemical; number of carbons: 1; hereinafter, referred to as TAB), hexyltrimethylammonium bromide (number of carbons: 6; hereinafter, referred to as Hexyl-TAB), and cetyltrimethylammonium bromide (Wako Pure Chemical; number of carbons: 16; hereinafter, referred to as Cetyl-TAB), which have one tertiary amino group within the molecule and a different carbon chain length in the alkyl group.

Series [2] in a line: Toxicity observed during application, Example 5. The note with it: topical application to NC/Nga mice, 12 mM week 1. In kind it is in vivo, mouse. The procedure: as §1, with “Mice (NC/Nga, 10 week old) were applied with a mite antigen (Biostir AD) twice a week for 4 weeks to prepare mice with atopic dermatitis outbreak as in Example 1. Induction” for “Induction”, “controls. Scoring was performed in the same manner as Example 1.” for “controls.”

In series [3] the test system is atopic dermatitis model mice (NC/Nga, mite antigen Biostir AD). Put plainly: Drug efficacy with dermatitis induction in parallel (AD score, pictures of the back), Example 3. In kind it is in vivo, mouse. The following applies: male NC/Nga mice, topical 12 mM, days 3, 7, 11. The protocol: Atopic dermatitis model mice were prepared and scored in the same manner as Example 1. The same test formulations as those in Example 1 were used.
Male NC/Nga mice (Charles River Laboratories Japan) induced to have atopic dermatitis were used. A test formulation was applied to the back once a day, 5 days a week (Monday to Friday), for a total of 10 times. 100 μL of the test formulation was applied to the back, and 25 μL was applied to each of the left and right auricles. The back was shaved prior to administration on Monday and Thursday to evaluate dermatitis scores. Atopic dermatitis was then induced only on Mondays every week to maintain dermatitis. Mice were euthanized after 11 days from the initial administration, and then the skin tissue was sampled.

The test system of series [4] is skin of atopic dermatitis patients. Kind of series: Replica method for goose bump-like skin symptoms, Example 6. In kind it is in vivo, human. The following applies: 12 mM applied to back part of the neck of atopic dermatitis patients; 5 to 10 minutes after application vs before. The procedure: Hexamethonium (12 mM) was applied to (back part of) the neck of atopic dermatitis patients to obtain replica images of skin before application and after 5 to 10 minutes from application. The replica images were collected by applying silicon resin (SILFLO) so as to cover the skin with outbreak of atopic dermatitis and peeling of the cured silicon from the skin after 5 minutes. Light was irradiated onto the collected replicas from one direction to compare and examine, and take pictures of, the unevenness of the skin surface.

The test system of series [5] is atopic dermatitis model mice (NC/Nga, mite antigen Biostir AD). Kind of series: Therapeutic effect from oral administration, dermatitis scores, Example 8. The note with it: 150 μL of 60 mM once a day, 5 times a week, total 10 times, day 10. The format is in vivo, mouse. The protocol: 10 week old NC/Nga mice (Charles River Laboratories Japan) were used as atopic dermatitis model animals. A mite antigen (Biostir AD, Wako Pure Chemical) was used to induce dermatitis. Model mice were prepared and scored according to the method described in the package insert of Biostir AD (same as Example 1).
As an inhibitor of a nicotinic acetylcholine receptor, hexamethonium bromide (hereinafter, hexamethonium; sigma-aldrich) was used. The inhibitor was dissolved in purified water and prepared to have a final concentration of 60 mM. Purified water (DW) was used as a negative control.
150 μL of a test formulation was orally administered to atopic dermatitis induced mice once a day, 5 times a week, for a total of 10 times. Dermatitis scores were evaluated after 0 and 10 days from administration. Mean change from day 0 was compared. Atopic dermatitis was induced with mite antigens only on Mondays every week to maintain the symptom.

Series [6] shares this test system. Kind of series: Evaluation of drug efficacy after inducing dermatitis (AD score, pictures of the back), Example 1. The format is in vivo, mouse. The following applies: female NC/Nga mice, topical 12 mM, days 3 and 7. The procedure: 10 week old NC/Nga mice (Charles River Laboratories Japan) were used as atopic dermatitis model animals. A mite (Dermatophagoides farina) antigen, i.e., Biostir AD (Wako Pure Chemical), was used to induce dermatitis. Model mice were prepared by the following procedure.
1. The back of mice was shaved. A hair removal cream was used only for the first time. 2. To destroy the skin barrier, 150 μL of 4% SDS was applied and dried for 2 to 3 hours (this step was omitted for the first time). 3. To stimulate immunity, 100 mg of Biostir AD was applied to the back and the left and right auricles of the mice. 4. These steps were performed twice a week.
Scoring was performed according to the method described in the package insert of Biostir AD. Four endpoints were each evaluated as 0 to 3 points. The total score for the endpoints was used as the AD score. The following Table 1 summarizes the scores for each endpoint.
Acridinium bromide (Wako Pure Chemical) and scopolamine hydrobromide trihydrate (Tokyo Chemical Industry) were used as an inhibitor of a muscarinic acetylcholine receptor. Hexamethonium bromide (sigma-aldrich) and dextromethorphan hydrobromide monohydrate (Wako Pure Chemical) were used as an inhibitor of a nicotinic acetylcholine receptor. Dimethyl sulfoxide (DMSO, Wako Pure Chemical), saline (Otsuka Pharmaceutical), and purified water were used as solvents. […]

In series [7] the test system is mast cells. Put plainly: Activity and migration of mast cells (toluidine blue stain of back skin), Example 2. In kind it is in vivo, mouse. The note with it: severe area; saline group about 40%. The source says:
Solifenacin succinate (Tokyo Chemical Industry), acridinium bromide (Wako Pure Chemical) and scopolamine hydrobromide trihydrate (Tokyo Chemical Industry) were used as an inhibitor of a muscarinic acetylcholine receptor. Tubocurarine chloride pentahydrate (Tokyo Chemical Industry), gallamintriethiodide (sigma-aldrich), hexamethonium bromide (sigma-aldrich), dextromethorphan hydrobromide monohydrate (Wako Pure Chemical), and α-bungarotoxin (alomone labs) were used as an inhibitor of a nicotinic acetylcholine receptor. Dimethyl sulfoxide (DMSO, Wako Pure Chemical) saline (Otsuka Pharmaceutical), and purified water were used as solvents.
The back skin of sampled atopic dermatitis model mice was immobilized with neutral formalin and embedded in paraffin. A 4 μm thick tissue segment was prepared therefrom, and mast cells were stained with toluidine blue stain. The stained tissue segment was captured with a microscope. […] The areas of only collagen fiber sites in the tissue segment images were measured (removing areas of the epidermal layer, mast cells, and muscle cells) and compared the mast cell count per unit area to the degree of degranulation.

Entries after “also recorded” stand apart in the source; their conditions may differ.

On to `CCCCCCCCCCCCCCCC[N+](C)(C)C.[Br-]` [Cetyl-TAB, Cetyltrimethylammonium bromide], for which the “atopic dermatitis score (mean change) relative to solvent administered group (DW)” value in series [1] is recorded as “exacerbating action”.
Take `NCCCCCCN` [HMDA, Hexamethylenediamine]: the “atopic dermatitis score (mean change) relative to solvent administered group (DW)” value in series [1] is reported as “An effect of suppression was not found”.
Same read-out and setting: to `CCCCCC[N+](C)(C)C.[Br-]` [Hexyl-TAB, Hexyltrimethylammonium Bromide] belongs “effect of suppressing atopic dermatitis, although slightly weaker than hexamethonium bromide; also recorded: effect of suppressing atopic dermatitis”; to `C[N+](C)(C)CCOC(=O)CCC(=O)OCC[N+](C)(C)C` [Suxamethonium bromide, suxamethonium chloride], “reduce atopic dermatitis scores”.
Consider `C[N+](C)(C)CCCCCCCCCC[N+](C)(C)C` [decamethonium bromide, Decamethonium Bromide], for which the results for the “atopic dermatitis score (mean change) relative to solvent administered group (DW)” value in series [1] and in series [1] (listed as Decamethonium bromide) were “reduce atopic dermatitis scores” and “action to exacerbate atopic dermatitis was confirmed”, respectively. In addition, the toxicity result in series [2] was “strong toxicity”.
With `C[N+](C)(C)CCCCCC[N+](C)(C)C.[Br-].[Br-]` [hexamethonium bromide, Hexamethonium Bromide], the entries for the “therapeutic effect (AD scores and ΔAD scores)” value in series [3] and in series [6] were “relative high therapeutic effect” and “relatively high therapeutic effect”, respectively. Further, in series [4], the “degree of protrusion of skin pores (replica images)” value is listed as “degree of protrusion of skin pores has subsided to be less goose bump-like”. Besides, the “improvement in dermatitis scores (mean change from day 0)” value in series [5] is given as “Improvement in the dermatitis scores was observed”. In series [1], the “atopic dermatitis score (mean change) relative to solvent administered group (DW)” value was “elevation in atopic dermatitis scores was suppressed”.
With `COc1cc2c3cc1Oc1cc(ccc1O)C[C@@H]1c4c(cc(OC)c(O)c4Oc4ccc(cc4)C[C@@H]3N(C)CC2)CC[N+]1(C)C` [tubocurarine, Tubocurarine chloride pentahydrate], the “ratio of degranulated mast cells to all mast cells” value in series [7] was “about 33%”.
Regarding Tetramethylammonium Bromide [TAB], in series [1], the “atopic dermatitis score (mean change) relative to solvent administered group (DW)” value is recorded as “effect of suppressing atopic dermatitis”.

For the origin of these results see patent US20190125734A1, “COMPOSITION FOR TREATING OR PREVENTING ATOPIC DERMATITIS” (NANOEGG Research Laboratories, Inc., priority 2016, published 2019).
